Results taken from patent publication US8420307B2, “Sperm cryoprotective media” (The Jackson Laboratory, priority 2006, dated 2013).
“Also recorded” adds a separate entry of the source.

Experiments:
Rat Sperm = assay: Rat sperm motility after cryopreservation and thawing; format: cell-based, LEW/SsNHsd rat; conditions: addition of 477 μM MTG to lactose/egg yolk media
Method: The epididymides and vas deferentia were collected from one 33 week old LEW/SsNHsd rat (Harlan, Indianapolis, Ind.). Incisions were made in the tissue and the sperm were allowed to swim out, into 2 mL of a solution containing 8% lactose [w/v] (Sigma Aldrich; St. Louis, Mo.) and 23% egg yolk [v/v] from fresh eggs in distilled water (Invitrogen; Carlsbad, Calif.) for 10 min. The sperm suspension was then split with half being placed into the lactose/egg yolk solution and the other half being suspended in lactose/egg yolk solution containing 954 micromol MTG in 15 mL conical tubes. […] The 15 mL conical tubes containing the sperm samples were placed into a beaker containing ˜150 mL of 15° C. water for 10 min. […]
The sperm were loaded into 250 μL French straws (IMV; Maple Grove, Minn.; cat# AAA201), which were then sealed with an instantaneous heat sealer (model AIE-305HD; American International Electric; Whittier, Calif.) and 5 of them loaded into cassettes (Zanders Medical Supplies; Vero Beach, Fla.). […] The sperm were diluted 1:50 in Cooks Mouse Vitro Fert (Cook's; Spencer, Ind.) and motility was evaluated by counting at least 5 different fields using a video monitor connected to a microscope using a magnification of 40×. […]

bovine sperm = assay: Bovine sperm post-thaw viability (SYBR 14 / propidium iodide flow cytometry); format: cell-based, Holstein bulls
Method: Sperm from three collections from each of 6 different bulls were frozen in the presence of MTG at the concentrations indicated on the x-axes. For each collection, two sets of three straws each were created and analyzed twice for sperm viability. Differences in sperm cell viability among the treatments were determined using analysis of variance on arcsine transformed percents and preplanned comparisons to the control of no MTG using Dunnett's method. Panel A illustrates the mean and standard errors for the 6 bulls while panels B though G illustrate the percent of viable sperm for the individuals. […]
Semen was collected via an artificial vagina from 6 different Holstein bulls over 3 different days. […] Antibiotics were added to the neat semen and initial volume and concentration were determined using a graduated cylinder and spectrophotometry. […]
(§1) For the examination, 6 straws per treatment per collection were thawed in a 37° C. water bath for at least 60 sec. For each treatment within a collection, two pools of semen were created and analyzed by combining the contents of three straws. […] The percent of motile sperm was determined on 4 different fields within each of 2 separate chambers. For viability the sperm samples were diluted 1:100 in PBS and stained with SYBR 14 ([…]) and propidium iodide (12 μM About 10,000 cells were counted using the Partec Flomax Flow Cytometer (Ft. Collins, Colo.).

bull sperm = assay: Bovine sperm post-thaw motility (IVOS); format: cell-based, Holstein bulls; conditions: MTG 0, 100, 500, 1000 or 5000 μM in Triladyl egg yolk extender containing glycerol; 0 and 3 hr
Method: Semen was collected via an artificial vagina from 6 different Holstein bulls over 3 different days. The bulls were selected such that three produce sperm with good consistent freezing quality and three produce sperm that respond to cryopreservation with poorer consistency. Antibiotics were added to the neat semen and initial volume and concentration were determined using a graduated cylinder and spectrophotometry. From each collection, 5 different 500 μL aliquots of semen were extended with 1.5 mL of Triladyl egg yolk extender (Minitube; Verona, Wis.) containing glycerol. Subsequently, 2 mL of the same extender containing no MTG, 200, 1000, 2000 or 10,000 μM MTG was added to the extended semen to yield the final concentrations for MTG of 0, 100, 500, 1000 or 5000 μM. […]
as §1

OCC(O)CS (stereo not shown) [MTG, monothioglycerol]
rat sperm motility after thawing, effect in words (Rat Sperm): increased motility | post-thaw viability of bovine sperm (bovine sperm; MTG 0, 100, 500, 1000 or 5000 μM in egg yolk extender containing glycerol, 6 bulls, FIG. 5): not negatively influenced; also recorded: enhances post-thaw viability | increase of viability (bovine sperm; bovine sperm, 3 bulls with slight effect): slight effect | overall post-thaw motility of bull sperm (bull sperm): no ill effects
